Test results from the supplement of paper PMC11061612.

Columns and labels:
[1] = test system: CAL-120 (Breast Carcinoma); assay: Bliss excess, mean over the matrix (fraction); higher = more synergy
Summary of the method: (§1)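 After 24 hours at 37°C and 5% CO2 in 1536-well plates, cells in DMEM/F12 or RPMI plus 10% FBS received two-drug dose matrices for 72 hours. Viability came from CellTiter-Glo 2.0 luminescence and was scaled as inhibition, anchored at 0 by vehicle wells and at 1 by blank wells. Combination Emax is taken as the second-highest inhibition in the matrix, and Bliss excess as the observed combination effect less EA + EB − EA·EB, with EA and EB the single-agent effects.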

[2] = test system: CAL-62 (Thyroid Gland Carcinoma); assay: as above
Summary of the method: as §1

GB-1 (Glioblastoma) = assay: as above
Summary of the method: as §1

[3] = test system: GP5d (Colorectal Carcinoma); assay: as above
Summary of the method: as §1

IST-MES1 (Mesothelioma) = assay: as above
Summary of the method: as §1

[4] = test system: LK-2 (Squamous Cell Lung Carcinoma); assay: as above
Summary of the method: as §1

[5] = test system: MFE-280 (Endometrial Carcinoma); assay: as above
Summary of the method: as §1

[6] = test system: NCI-H2342 (Lung Adenocarcinoma); assay: as above
Summary of the method: as §1

[7] = test system: OAW-42 (Ovarian Carcinoma); assay: as above
Summary of the method: as §1

[8] = test system: OVMIU (Ovarian Carcinoma); assay: as above
Summary of the method: as §1

[9] = test system: PSN1 (Pancreatic Carcinoma); assay: as above
Summary of the method: as §1

[10] = test system: REH (B-Lymphoblastic Leukemia); assay: as above
Summary of the method: as §1

SF268 (Low Grade Glioma) = assay: as above
Summary of the method: as §1

[11] = test system: SHP-77 (Small Cell Lung Carcinoma); assay: as above
Summary of the method: as §1

[12] = test system: SK-PN-DW (Other Solid Carcinomas); assay: as above
Summary of the method: as §1

[13] = test system: VAL (B-Cell Non-Hodgkin's Lymphoma); assay: as above
Summary of the method: as §1

WM278 (Melanoma) = assay: as above
Summary of the method: as §1

[14] = test system: HSC-39 (Gastric Carcinoma); assay: combination Emax (second highest fraction inhibited in the dose matrix, 72 h); higher = more inhibition; extreme values may be limits of the assay
Summary of the method: as §1

[15] = test system: LXF-289 (Lung Adenocarcinoma); assay: as above
Summary of the method: as §1

[16] = test system: RKN (Other Solid Carcinomas); assay: as above
Summary of the method: as §1
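Throughout, for Bliss excess, mean over the matrix: after 72 h of two-drug dosing.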

Row | SMILES | Bliss excess [1] | Bliss excess [2] | Bliss excess (GB-1 (Glioblastoma)) | Bliss excess [3] | Bliss excess (IST-MES1 (Mesothelioma)) | Bliss excess [4] | Bliss excess [5] | Bliss excess [6] | Bliss excess [7] | Bliss excess [8] | Bliss excess [9] | Bliss excess [10] | Bliss excess (SF268 (Low Grade Glioma)) | Bliss excess [11] | Bliss excess [12] | Bliss excess [13] | Bliss excess (WM278 (Melanoma)) | combination Emax [14] | combination Emax [15] | combination Emax [16]
1 | CN(C)CCCOc1ccc(-c2ccc3ncc4c(c3c2)n(C2CCOCC2)c(=O)n4C)cn1 [AZD0156] + O=C(c1cc(Cc2n[nH]c(=O)c3ccccc23)ccc1F)N1CCN(C(=O)C2CC2)CC1 [Olaparib] (first compound max 3 µM, partner max 3 µM) | 0.0047 | 0.0939 | 0.014 | 0.0682 | -0.0141 | 0.154 | 0.0591 | -0.0504 | 0.0145 | 0.06 | 0.0124 | 0.143 | -0.0347 | 0.0544 | 0.0158 | 0.141 | 0.0011 | 0.413 | 0.4 | 0.214
2 | C=CCn1c(=O)c2cnc(Nc3ccc(N4CCN(C)CC4)cc3)nc2n1-c1cccc(C(C)(C)O)n1 [AZD1775] + C1CN(CCC1(C(=O)N[C@@H](CCO)C2=CC=C(C=C2)Cl)N)C3=NC=NC4=C3C=CN4 [Capivasertib] (first compound max 3 µM, partner max 3 µM) | -0.0265 | 0.0089 | -0.0211 | -0.0274 | -0.0056 | -0.0913 | -0.0055 | -0.0136 | -0.0399 | -0.0032 | -0.0238 | 0.0008 | -0.009 | -0.0114 | 0.0265 | -0.0252 | -0.0468 | 0.958 | 0.836 | 0.762
3 | CN(CCO)CC[C@H](CSc1ccccc1)Nc1ccc(S(=O)(=O)NC(=O)c2ccc(N3CCC([C@@H](O)c4ccccc4-c4ccc(Cl)cc4)CC3)cc2)cc1S(=O)(=O)C(F)(F)F [AZD4320] + C1CN(CCC1(C(=O)N[C@@H](CCO)C2=CC=C(C=C2)Cl)N)C3=NC=NC4=C3C=CN4 [Capivasertib] (first compound max 1 µM, 7x7, partner max 3 µM) | -0.0649 | -0.0463 | -0.0274 | -0.0396 | -0.0371 | -0.0077 | 0.0092 | -0.0259 | -0.0274 | -0.0691 | -0.0264 | 0.0197 | -0.0502 | 0.0185 | -0.0588 | 0.0595 | -0.0378 | 0.328 | 0.173 | 0.154
4 | CN(CCO)CC[C@H](CSc1ccccc1)Nc1ccc(S(=O)(=O)NC(=O)c2ccc(N3CCC([C@@H](O)c4ccccc4-c4ccc(Cl)cc4)CC3)cc2)cc1S(=O)(=O)C(F)(F)F [AZD4320] + C=CCn1c(=O)c2cnc(Nc3ccc(N4CCN(C)CC4)cc3)nc2n1-c1cccc(C(C)(C)O)n1 [AZD1775] (first compound max 1 µM, partner max 1 µM) | 0.0158 | 0.0035 | -0.0642 | -0.0238 | -0.0274 | 0.0105 | 0.0823 | 0 | 0.0074 | 0.0324 | -0.0112 | 0.0738 | 0.0042 | 0.0877 | 0.0052 | -0.0211 | 0.0846 | 0.958 | 0.638 | 0.315
5 | CN(CCO)CC[C@H](CSc1ccccc1)Nc1ccc(S(=O)(=O)NC(=O)c2ccc(N3CCC([C@@H](O)c4ccccc4-c4ccc(Cl)cc4)CC3)cc2)cc1S(=O)(=O)C(F)(F)F [AZD4320] + CN(C)CCCOc1ccc(-c2ccc3ncc4c(c3c2)n(C2CCOCC2)c(=O)n4C)cn1 [AZD0156] (first compound max 1 µM, 7x7, partner max 1 µM) | -0.0225 | -0.005 | -0.0272 | -0.0087 | -0.041 | 0.0312 | 0.0113 | -0.0214 | -0.0088 | -0.0427 | -0.0308 | 0.0092 | -0.0012 | 0.0223 | -0.0302 | 0.0174 | -0.0148 | 0.279 | 0.182 | 0.102
6 | CN(CCO)CC[C@H](CSc1ccccc1)Nc1ccc(S(=O)(=O)NC(=O)c2ccc(N3CCC([C@@H](O)c4ccccc4-c4ccc(Cl)cc4)CC3)cc2)cc1S(=O)(=O)C(F)(F)F [AZD4320] + C[C@@H]1COCCN1C2=NC(=NC(=C2)C3(CC3)[S@](=N)(=O)C)C4=C5C=CNC5=NC=C4 [AZD6738] (first compound max 1 µM, 7x7, partner max 10 µM) | -0.0313 | 0.0112 | -0.0314 | -0.0515 | -0.0338 | -0.0267 | 0.0099 | -0.0429 | -0.0315 | 0.0069 | -0.0798 | 0.0532 | 0.023 | -0.0032 | -0.0551 | 0.0095 | -0.0404 | 1 | 0.689 | 0.242
7 | CN(CCO)CC[C@H](CSc1ccccc1)Nc1ccc(S(=O)(=O)NC(=O)c2ccc(N3CCC([C@@H](O)c4ccccc4-c4ccc(Cl)cc4)CC3)cc2)cc1S(=O)(=O)C(F)(F)F [AZD4320] + C[C@@H](Nc1cc(F)cc(F)c1)c1cc(C(=O)N(C)C)cc2c(=O)cc(N3CCOCC3)oc12 [AZD8186] (first compound max 1 µM, 7x7, partner max 3 µM) | 0.0037 | 0.046 | -0.0289 | -0.0378 | 0.0552 | -0.0056 | 0.0097 | -0.0065 | 0.0688 | -0.0637 | -0.0651 | 0.0353 | 0.014 | 0.0216 | -0.0087 | 0.0137 | 0.035 | 0.62 | 0.348 | 0.314
8 | CN(CCO)CC[C@H](CSc1ccccc1)Nc1ccc(S(=O)(=O)NC(=O)c2ccc(N3CCC([C@@H](O)c4ccccc4-c4ccc(Cl)cc4)CC3)cc2)cc1S(=O)(=O)C(F)(F)F [AZD4320] + Cc1cc2ncnn2cc1Nc1ncc2c(n1)n(C1CCOCC1)c(=O)n2C [AZD7648] (first compound max 1 µM, 7x7, partner max 10 µM) | -0.0367 | -0.0086 | -0.0225 | -0.052 | -0.042 | -0.0075 | -0.0471 | -0.0475 | -0.0118 | -0.0652 | -0.0361 | 0.0041 | -0.0371 | -0.0012 | -0.0411 | 0.0316 | -0.0277 | 0.367 | 0.216 | 0.135
9 | CN(CCO)CC[C@H](CSc1ccccc1)Nc1ccc(S(=O)(=O)NC(=O)c2ccc(N3CCC([C@@H](O)c4ccccc4-c4ccc(Cl)cc4)CC3)cc2)cc1S(=O)(=O)C(F)(F)F [AZD4320] + Cn1cnc2c(F)c(Nc3ccc(Br)cc3Cl)c(C(=O)NOCCO)cc21 [Selumetinib] (first compound max 1 µM, 7x7, partner max 3 µM) | 0.0577 | -0.0051 | 0.0313 | 0.0908 | 0.0318 | -0.0134 | -0.0211 |  | -0.0115 | -0.0595 | 0.0043 | -0.0369 | 0.0069 | 0.0429 | -0.0198 | 0.0113 | 0.0582 | 0.57 | 0.314 | 0.326
10 | COc1nnc2ccc(N3CCC(c4ccc(OCCN5CCN(C)C(=O)[C@H]5C)cc4)CC3)nn12 [AZD5153] + C=CCn1c(=O)c2cnc(Nc3ccc(N4CCN(C)CC4)cc3)nc2n1-c1cccc(C(C)(C)O)n1 [AZD1775] (first compound max 1 µM, partner max 1 µM) | -0.0176 | -0.0228 | 0.056 | -0.0279 | -0.0347 | 0.0029 | -0.0779 | -0.0347 | -0.0338 | -0.0409 | -0.0385 | -0.0291 | 0.0037 | 0.0194 | -0.0722 | -0.126 | -0.0364 | 0.967 | 0.813 | 0.527
11 | COc1nnc2ccc(N3CCC(c4ccc(OCCN5CCN(C)C(=O)[C@H]5C)cc4)CC3)nn12 [AZD5153] + CC1(C)CCC(CN2CCN(c3ccc(C(=O)NS(=O)(=O)c4ccc(NCC5CCOCC5)c([N+](=O)[O-])c4)c(Oc4cnc5[nH]ccc5c4)c3)CC2)=C(c2ccc(Cl)cc2)C1 [Venetoclax] (first compound max 1 µM, 7x7, partner max 1 µM) | -0.0434 | -0.0461 | -0.062 | -0.0741 | -0.0237 | -0.0015 | -0.0138 | -0.0384 | -0.0201 | -0.0254 | -0.0649 | -0.136 | -0.128 | 0.0049 | -0.0998 | -0.0493 | -0.0188 | 0.676 | 0.646 | 0.485
12 | Cc1c2c(nn1C)CSCc1cc(n(C)n1)CSc1cc(c3ccccc3c1)OCCCc1c(C(=O)O)n(C)c3c-2c(Cl)ccc13 [AZD5991] + C[C@@H]1COCCN1C2=NC(=NC(=C2)C3(CC3)[S@](=N)(=O)C)C4=C5C=CNC5=NC=C4 [AZD6738] (first compound max 1 µM, 7x7, partner max 10 µM) | 0.0621 | 0.0278 | 0.0116 | 0.002 |  | 0.0146 | 0.0388 | 0.0291 | 0.0046 | -0.0037 | -0.0143 | -0.0519 | 0.0188 | -0.0048 | -0.0175 | -0.0898 | 0.0307 | 1 | 0.776 | 0.215
13 | Cc1c2c(nn1C)CSCc1cc(n(C)n1)CSc1cc(c3ccccc3c1)OCCCc1c(C(=O)O)n(C)c3c-2c(Cl)ccc13 [AZD5991] + Cc1cc2ncnn2cc1Nc1ncc2c(n1)n(C1CCOCC1)c(=O)n2C [AZD7648] (first compound max 1 µM, 7x7, partner max 10 µM) | -0.0059 | -0.0187 | -0.0429 | -0.0338 | -0.0122 | 0.0019 |  | -0.0535 | -0.0419 | -0.091 | -0.0628 | -0.0082 | 0.0006 | -0.0359 | -0.0404 | -0.0356 | -0.0428 | 1 | 0.369 | 0.219
